Results from patent publication US5338736A, “Angiotensin II receptor blocking 2,3,6-substituted quinazolinones” (American Cyanamid Company, priority 1993, dated 1994).
Where “and” joins values, the source holds several entries; their conditions need not be identical. Identical values can stand only once.

How the values were obtained:
Angiotensin II Receptor = target: T1, Angiotensin II Receptor (Bos taurus, UniProt P25104); assay: Receptor Binding Assay: competition with [^125 I](Sar^1, Ile^8)AngII on adrenal cortex microsomal membranes; design: species or system beef; details: for IC50: beef adrenal cortex membranes, [^125 I](Sar^1, Ile^8)AngII, 60 min, room temperature, pH 7.4
T1 construct: The brownish tissue forming the adrenal cortex is scraped off and finely minced with scissors before homogenization; tissue Maxwell-Cohen (local slaughter house); host or cells: beef adrenal cortex, microsomal membranes
T1 sequence (P25104 1-359): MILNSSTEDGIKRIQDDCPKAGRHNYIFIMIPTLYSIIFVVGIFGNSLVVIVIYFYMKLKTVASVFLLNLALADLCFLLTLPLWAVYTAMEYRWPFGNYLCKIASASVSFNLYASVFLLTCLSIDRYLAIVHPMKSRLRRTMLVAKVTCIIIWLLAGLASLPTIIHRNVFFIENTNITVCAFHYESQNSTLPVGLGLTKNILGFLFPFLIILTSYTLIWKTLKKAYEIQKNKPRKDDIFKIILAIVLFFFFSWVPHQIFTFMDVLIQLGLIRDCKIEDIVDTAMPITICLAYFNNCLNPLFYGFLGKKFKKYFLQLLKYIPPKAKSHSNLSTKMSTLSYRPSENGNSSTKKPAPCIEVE
Text: Beef adrenals are obtained from a local slaughter house (Maxwell-Cohen). […] All unlabeled AngII analogs, Dimethylsulfoxide (DMSO), nucleotides, bovine serum albumin (BSA) are purchased from Sigma Chemical Co., St. Louis, Mo. U.S.A.
Approximately sixteen (16) to twenty (20) beef adrenal glands are processed as follows: fresh adrenal glands received on crushed ice are cleaned of fatty tissues and the tough membranes encapsulating the glands are removed and discarded. The brownish tissue forming the adrenal cortex is scraped off and finely minced with scissors before homogenization. Care is taken to avoid contamination with medullary tissue during dissection. The scraped cortices are suspended in twenty volumes of an ice-cold buffer medium consisting of 10 mM Tris.HCl (pH 7.4 at 22° C.) and containing 1.0 mM EDTA and 0.2M sucrose. Unless otherwise indicated, all subsequent operations are done at 4° C. […] The homogenate is centrifuged first at low speed (3,000× g) for 10 min. The resulting pellet is discarded and the supernatant fluid recentrifuged at 10,000× g for 15 minutes to give a P2 pellet. […] The translucent final pellet is harvested and combined in a small volume (20-50.0 ml) of 50.0 mM Tris.HCl buffer, pH 7.2. […] The pelleted membrane is reconstituted in 50.0 mM Tris.HCl buffer containing 0.1 mM of phenylmethylsulfonyl fluoride (PMSF) to give approximately a protein concentration of 2.5 mg per ml of tissue suspension. The membrane preparation is finally aliquoted in 1.0 ml volumes and stored at -70° C. until use in the binding assays.
Assays are performed in triplicate. The wells are left undisturbed for 60 min. at room temperature. […] The filter discs are washed with 10×1.0 ml of cold 0.9% NaCl to remove unbound ligand. […] This method is routinely used. The filters are removed from the filter grid and counted in a Parkard® Cobra Gamma Counter for 1 min. (Packard Instrument Co., Downers Grove, Ill., U.S.A.).

[1] = test system: angiotensin II vasopressor response; assay: AII challenge: inhibition of angiotensin II vasopressor response in conscious SHR; format: in vivo, rat (Male Okamoto-Aoki SHR); details: 3 mg/kg iv; for % Inhibition / Average Change: n = 2
Text: By administering a compound of this invention to a rat, and then challenging with angiotensin II, a blockage of the vasopressor response is realized.
Conscious Male Okamoto-Aoki SHR, 16-20 weeks old, weighing approximately 330 g are purchased from Charles River Labs (Wilmington, Mass.). Conscious rats are restrained in a supine position with elastic tape. The area at the base of the tail is locally anesthetized by subcutaneous infiltration with 2% procaine. The ventral caudal artery and vein are isolated, and a cannula made of polyethylene (PE) 10-20 tubing (fused together by heat) is passed into the lower abdominal aorta and vena cava, respectively. The cannula is secured, heparinized (1,000 I.U./ml), sealed and the wound is closed. The animals are placed in plastic restraining cages in an upright position. The cannula is attached to a Statham P23Db pressure transducer, and pulsatile blood pressure is recorded to 10-15 minutes with a Gould Brush recorder. (Chan et al., (Drug Development Res., 18:75-94, 1989).
Angiotensin II (human sequence, Sigma Chem. Co., St. Louis, Mo.) of 0.05 and 0.1 μg/kg i.v. is injected into all rats (predosing response). Then a test compound, vehicle or a known angiotensin II antagonist is administered i.v., i.p. or orally to each set of rats. The two doses of angiotensin II are given to each rat again at 30. 60. 90. 120. 180. 240 and 300 minutes post dosing the compound or vehicle. The vasopressor response of angiotensin II is measured for the increase in systolic blood pressure in mmHg. The percentage of antagonism or blockade of the vasopressor response of angiotensin II by a compound is calculated using the vasopressor response (increase in systolic blood pressure) of angiotensin II of each rat predosing the compound as 100%. A compound is considered active if at 30 mg/kg i.v. it antagonized at least 50% of the response.

[2] = AII 0.05 mcg/kg, 30 min post dose
[3] = AII 0.05 mcg/kg, 60 min post dose
[4] = AII 0.05 mcg/kg, 90 min post dose
[5] = AII 0.05 mcg/kg, 120 min post dose
[6] = AII 0.05 mcg/kg, 180 min post dose
[7] = AII 0.05 mcg/kg, 240 min post dose
[8] = AII 0.05 mcg/kg, 300 min post dose
[9] = AII 0.1 mcg/kg, 30 min post dose
[10] = AII 0.1 mcg/kg, 60 min post dose
[11] = AII 0.1 mcg/kg, 90 min post dose
[12] = AII 0.1 mcg/kg, 120 min post dose
[13] = AII 0.1 mcg/kg, 180 min post dose
[14] = AII 0.1 mcg/kg, 240 min post dose
[15] = AII 0.1 mcg/kg, 300 min post dose

CCCCc1nc2ccc(C3CCC4CCCC4O3)cc2c(=O)n1Cc1ccc(-c2ccccc2-c2nn[nH]n2)cc1 (stereo not shown) [Example 10]
IC50 (Angiotensin II Receptor): 105 nM

CCCCc1nc2ccc(C3CCC4CCCCC4O3)cc2c(=O)n1Cc1ccc(-c2ccccc2-c2nn[nH]n2)cc1 (stereo not shown) [Example 11]
Change (response to AII, individual rat) [1, 2]: 15 mmHg and 20 mmHg | % Inhibition [1, 2]: 59% | Average Change [1, 2]: 17.5 mmHg | Change (response to AII, individual rat) [1, 3]: 30 mmHg and 15 mmHg | % Inhibition [1, 3]: 47% | Average Change [1, 3]: 22.5 mmHg | Change (response to AII, individual rat) [1, 4]: 30 mmHg and 10 mmHg | % Inhibition [1, 4]: 53% | Average Change [1, 4]: 20 mmHg | Change (response to AII, individual rat) [1, 5]: 10 mmHg | % Inhibition [1, 5]: 76% | Average Change [1, 5]: 10 mmHg | Change (response to AII, individual rat) [1, 6]: 30 mmHg and 35 mmHg | % Inhibition [1, 6]: 24% | Average Change [1, 6]: 32.5 mmHg | Change (response to AII, individual rat) [1, 7]: 20 mmHg and 7 mmHg | % Inhibition [1, 7]: 68% | Average Change [1, 7]: 13.5 mmHg | Change (response to AII, individual rat) [1, 8]: 30 mmHg and 15 mmHg | % Inhibition [1, 8]: 47% | Average Change [1, 8]: 22.5 mmHg | Change (response to AII, individual rat) [1, 9]: 10 mmHg and 30 mmHg | % Inhibition [1, 9]: 65% | Average Change [1, 9]: 20 mmHg | Change (response to AII, individual rat) [1, 10]: 20 mmHg and 10 mmHg | % Inhibition [1, 10]: 74% | Average Change [1, 10]: 15 mmHg | Change (response to AII, individual rat) [1, 11]: 30 mmHg and 25 mmHg | % Inhibition [1, 11]: 52% | Average Change [1, 11]: 27.5 mmHg | Change (response to AII, individual rat) [1, 12]: 15 mmHg and 25 mmHg | % Inhibition [1, 12]: 65% | Average Change [1, 12]: 20 mmHg | Change (response to AII, individual rat) [1, 13]: 35 mmHg and 20 mmHg | % Inhibition [1, 13]: 52% | Average Change [1, 13]: 27.5 mmHg | Change (response to AII, individual rat) [1, 14]: 35 mmHg and 30 mmHg | % Inhibition [1, 14]: 43% | Average Change [1, 14]: 32.5 mmHg | Change (response to AII, individual rat) [1, 15]: 35 mmHg and 30 mmHg | % Inhibition [1, 15]: 43% | Average Change [1, 15]: 32.5 mmHg | Response After AII (individual rat) ([1]; after AII 0.05 mcg/kg, 30 min post dose): 260 mmHg and 265 mmHg | Response After AII (individual rat) ([1]; after AII 0.05 mcg/kg, 60 min post dose): 260 mmHg and 255 mmHg | Response After AII (individual rat) ([1]; after AII 0.05 mcg/kg, 90 min post dose): 265 mmHg and 245 mmHg | Response After AII (individual rat) ([1]; after AII 0.05 mcg/kg, 120 min post dose): 255 mmHg and 240 mmHg | Response After AII (individual rat) ([1]; after AII 0.05 mcg/kg, 180 min post dose): 265 mmHg and 260 mmHg | Response After AII (individual rat) ([1]; after AII 0.05 mcg/kg, 240 min post dose): 250 mmHg and 240 mmHg | Response After AII (individual rat) ([1]; after AII 0.05 mcg/kg, 300 min post dose): 275 mmHg and 255 mmHg | Response After AII (individual rat) ([1]; after AII 0.1 mcg/kg, 30 min post dose): 260 mmHg and 280 mmHg | Response After AII (individual rat) ([1]; after AII 0.1 mcg/kg, 60 min post dose): 260 mmHg and 255 mmHg | Response After AII (individual rat) ([1]; after AII 0.1 mcg/kg, 90 min post dose): 285 mmHg and 260 mmHg | Response After AII (individual rat) ([1]; after AII 0.1 mcg/kg, 120 min post dose): 255 mmHg and 250 mmHg | Response After AII (individual rat) ([1]; after AII 0.1 mcg/kg, 180 min post dose): 270 mmHg and 255 mmHg | Response After AII (individual rat) ([1]; after AII 0.1 mcg/kg, 240 min post dose): 285 mmHg and 255 mmHg | Response After AII (individual rat) ([1]; after AII 0.1 mcg/kg, 300 min post dose): 275 mmHg | Control Before AII (individual rat) ([1]; before AII 0.05 mcg/kg, 30 min post dose): 245 mmHg | Control Before AII (individual rat) ([1]; before AII 0.05 mcg/kg, 60 min post dose): 230 mmHg and 240 mmHg | Control Before AII (individual rat) ([1]; before AII 0.05 mcg/kg, 90 min post dose): 235 mmHg | Control Before AII (individual rat) ([1]; before AII 0.05 mcg/kg, 120 min post dose): 245 mmHg and 230 mmHg | Control Before AII (individual rat) ([1]; before AII 0.05 mcg/kg, 180 min post dose): 235 mmHg and 225 mmHg | Control Before AII (individual rat) ([1]; before AII 0.05 mcg/kg, 240 min post dose): 230 mmHg and 233 mmHg | Control Before AII (individual rat) ([1]; before AII 0.05 mcg/kg, 300 min post dose): 245 mmHg and 240 mmHg | Control Before AII (individual rat) ([1]; before AII 0.1 mcg/kg, 30 min post dose): 250 mmHg | Control Before AII (individual rat) ([1]; before AII 0.1 mcg/kg, 60 min post dose): 240 mmHg and 245 mmHg | Control Before AII (individual rat) ([1]; before AII 0.1 mcg/kg, 90 min post dose): 255 mmHg and 235 mmHg | Control Before AII (individual rat) ([1]; before AII 0.1 mcg/kg, 120 min post dose): 240 mmHg and 225 mmHg | Control Before AII (individual rat) ([1]; before AII 0.1 mcg/kg, 180 min post dose): 235 mmHg | Control Before AII (individual rat) ([1]; before AII 0.1 mcg/kg, 240 min post dose): 250 mmHg and 225 mmHg | Control Before AII (individual rat) ([1]; before AII 0.1 mcg/kg, 300 min post dose): 240 mmHg and 245 mmHg | IC50 (Angiotensin II Receptor): 132 nM

[^125 I](Sar^1, Ile^8)AngII [reference compound]
Specific binding for [^125 I](Sar^1, Ile^8)AngII (Angiotensin II Receptor; non-specific binding with 1.0 μM unlabeled (Sar^1, Ile^8)AngII): greater than 90%
